Source: a melting point compilation (Tetko et al.; mined from patent text by program, amines drawn as free bases though some values may be those of a salt)

SMILES | melting point
O=C(O)c1cccnc1C1=NC(=O)C2(CCCCC2)N1 | 186 to 189 °C
COc1ccc(-c2cc(C(=O)C(F)(F)F)[nH]c2-c2ccc(OC)cc2)cc1 | 185 to 186 °C
CC(C)OC(=O)N(O)CCN1CCCCC1 | 78 to 79 °C
O=c1cc(-c2n[nH]c3ccccc23)oc2ccccc12 | 237 to 238 °C
COC(=O)CC(C)C(=O)c1ccc(O)cc1 (stereo unspecified) | 89 to 91 °C
CC1(C)CC(=C(c2ccc(O)cc2)c2ccc(C#CCCC(=O)O)cc2)CC(C)(C)C1 | 233 to 234 °C
CC(=O)OC1CSC(Oc2ccc3ncsc3c2)C(OC(C)=O)C1OC(C)=O (stereo unspecified) | 166 °C
Clc1ccc(C2=CCN(CCCCn3cncn3)CC2)cc1 | 101 to 103 °C
CC#CCOc1ccc(S(=O)(=O)N(C)C(CCCSc2ccc(Cl)cc2)C(=O)OC)cc1 (stereo unspecified) | 88 to 89 °C
COC(=O)N(CC(=O)O)C(=O)c1c(OCC(F)(F)F)ccc2c(C(F)(F)F)c(OC)ccc12 | 186 to 187 °C
NC(=O)CC(c1cccc(F)c1)c1cccc(F)c1 | 103 to 105 °C
O=C(O)CCCC#CCNS(=O)(=O)c1ccc(Cl)cc1 | 91 to 93 °C
CC(=CC(=O)c1cccnc1)N1CCCC1 | 116 to 118 °C
Cn1nccc(N)c1=O | 191 to 192 °C
COCCOC1C(O)C(CO)OC1n1cnc2c(N)nc(N)nc21 (stereo unspecified) | 152 to 154 °C
CCc1ncnc2ccc(CCc3cc(OC)ccc3OC)cc12 | 74 °C
CC(C)(CO)c1ccc(C(=O)O)cc1 | 154 to 156 °C
CC(=O)OCCCc1ccc(-c2ccc3cc(C(=O)OCc4ccccc4)ccc3c2)cc1C12CC3CC(CC(C3)C1)C2 | 132 °C
Clc1ccc(Nc2nnc(Cc3ccncn3)c3ccccc23)cc1 | 174 to 176 °C

Results, then the compound that gave them:

melting point | SMILES
211 to 212 °C | O=[N+]([O-])c1ccc(CS(=O)(=O)CCO)cc1CS(=O)(=O)CCO
95 to 99 °C | CC(C(=O)N(C)C)n1ccc(-c2ccc(Cl)cc2)n1 (stereo unspecified)
140 to 144 °C | CC1C(c2ccc(Cl)cc2Cl)CC(=O)N1O (stereo unspecified)
186 to 187 °C | Oc1ccc2oc(-c3cc(OCc4ccccc4)c(O)cc3-c3ccccc3)cc2c1
94 to 98 °C | Nc1ccc(Cl)cc1C(O)c1ccccc1F (stereo unspecified)
115 to 117 °C | CN(C)CCCCNc1ncc2c(n1)-c1ccccc1C(c1cccc(Br)c1)C2 (stereo unspecified)
206 to 210 °C | O=C1NC(=S)NC1Cc1c[nH]c2ccccc12 (stereo unspecified)
148 to 154 °C | CC(CCc1cc2cccnc2n(-c2cccc(N(C)C)c2)c1=O)c1ccncc1 (stereo unspecified)
140 to 141 °C | COC(=O)c1cc(S(=O)(=O)N=CN(C)C)ccc1Cl
159 to 160 °C | COc1ccc(-c2c(N[C@H](C)c3ccccc3)c(=O)c2=O)cc1
219 to 221 °C | CN1CCN(C2=Nc3ccc(F)cc3Nc3sc4cc(Br)ccc4c32)CC1
133 to 134 °C | O=C1NC=N[C@H]2CCCC[C@@H]12 (relative stereo)
185 to 188 °C | O=C(O)Cc1cnc(Cc2ccc(NC(=O)c3ccc(Cl)c(Cl)c3)cc2)n2ccnc12
99 to 101 °C | CCCCCCSC1=CC(=O)NC1=O
141 to 142 °C | CSc1cccc2c3c(n(Cc4ccc(Cl)cc4)c12)C(CC(=O)O)CCC3 (stereo unspecified)
240 to 242 °C | Cc1nc(-n2ccc(OCc3ccc(C(F)(F)F)o3)cc2=O)sc1C(=O)NCc1cccnc1
162 °C | Cc1ccc(N(C)C(=O)CN(C(=O)CNC(=O)Nc2cccc(C)c2)c2ccccc2)cc1
165 to 167 °C | S=C(NCc1ccccc1)Nc1nccs1
141 to 143 °C | COc1cc(OC)c(-c2cccs2)cc1/C=C/C(=O)c1ccc(S(=O)(=O)Nc2ccccn2)cc1
60 to 100 °C | O=C(N[C@H]1CCC(=O)N2CCC[C@@H](C(=O)O)N2C1=O)OCc1ccccc1
94 to 95 °C | CC1(C)CC(Br)c2cc(C#N)ccc2O1 (stereo unspecified)
166 to 169 °C | CC(=O)NC[C@H]1CN(c2ccc(C3=CCN(C(=O)OCc4ccccc4)CC3)cc2)C(=O)O1
